Laboratory results reported in patent US20250339567A1, “COMPOUNDS WITH IMPROVED PHARMACOKINETICS FOR IMAGING AND THERAPY OF CANCER” (priority 2019, published 2025).
Starred links: 1 amine or outer side, 2 acyl side, 3 side chain; linkers in the order of their positions; H or OH if unused. Non-standard residues stand in square brackets, D forms with d. Residues, ends and D or L forms follow the SMILES beside them. *: point of attachment. DOTA = O=C(O)CN1CCN(CC(=O)O)CCN(CC(=O)*)CCN(CC(=O)O)CC1; αMeW = C[C@](N)(Cc1c[nH]c2ccccc12)C(=O)O; Sta = CC(C)C[C@H](N)[C@@H](O)CC(=O)O; Bta = N[C@@H](Cc1csc2ccccc12)C(=O)O; Gly(cPent) = N[C@H](C(=O)O)C1CCCC1; Trx = NC[C@H]1CC[C@H](C(=O)O)CC1; X1 = O=C(CN1CCC(N[*:1])CC1)[*:2]; Chg = N[C@H](C(=O)O)C1CCCCC1; dOrn = NCCC[C@@H](N)C(=O)O; hSer = N[C@@H](CCO)C(=O)O; Nle = CCCC[C@H](N)C(=O)O; dDap = NC[C@@H](N)C(=O)O; βAla = NCCC(=O)O; Sar = CNCC(=O)O

Assay: Plasma studies: metabolic stability in vitro in human plasma (radio RP-HPLC)
Format: in vitro ADME
Protocol: Metabolic stability in vitro was determined applying a procedure published by Linder et al. that was slightly modified. Immediately after labeling, human (200 μL) or murine (100 μL) plasma was added and the mixture was incubated at 37° C. for 72±2 h (or 6±0.5 h). Proteins were precipitated by treatment with ice-cold EtOH (150 μL [human], 100 μL [murine]) and ice-cold MeCN (450 μL [human], 300 μL [murine]), followed by centrifugation for 20 min at 13000 rpm. The supernatants were decanted and further analyzed using radio RP-HPLC. […]

SMILES | Amount of intact tracer after incubation in human plasma for 72 ± 2 h (n = 2)
CC(C)C[C@H](NC(=O)C[C@H](O)[C@H](CC(C)C)NC(=O)[C@H](Cc1c[nH]cn1)NC(=O)CNC(=O)[C@@H](NC(=O)[C@H](C)NC(=O)[C@H](Cc1c[nH]c2ccccc12)NC(=O)[C@H](CCO)NC(=O)[C@@H](Cc1ccccc1)NC(=O)[C@H]1CC[C@H](CNC(=O)CN2CCN(CC(=O)O)CCN(CC(=O)O)CCN(CC(=O)O)CC2)CC1)C(C)C)C(N)=O [DOTA-[Txa^5, Hse^7]MJ9] ({DOTA-Trx}-[dF][hSer]WAVGH[Sta]L-NH2) | 26.7 ± 1.3
CCCC[C@H](NC(=O)[C@H](Cc1ccccc1)NC(=O)[C@H](Cc1c[nH]cn1)NC(=O)CCNC(=O)[C@@H](NC(=O)[C@H](C)NC(=O)[C@H](Cc1c[nH]c2ccccc12)NC(=O)[C@H](CCO)NC(=O)[C@@H](Cc1ccccc1)NC(=O)CN1CCN(CC(=O)O)CCN(CC(=O)O)CCN(CC(=O)O)CC1)C(C)C)C(N)=O [DOTA-[Hse^7]UL] ({DOTA}-[dF][hSer]WAV[βAla]HF[Nle]-NH2) | 0.9 ± 0.9
CC(C)C[C@H](NC(=O)C[C@H](O)[C@H](CC(C)C)NC(=O)[C@H](Cc1c[nH]cn1)NC(=O)CNC(=O)[C@@H](NC(=O)[C@H](C)NC(=O)[C@H](Cc1c[nH]c2ccccc12)NC(=O)[C@H](CCO)NC(=O)[C@@H](Cc1ccccc1)NC(=O)CN1CCC(NC(=O)CN2CCN(CC(=O)O)CCN(CC(=O)O)CCN(CC(=O)O)CC2)CC1)C1CCCC1)C(N)=O [DOTA-[Hse^7, Cpg^10]MJ9] ({DOTA}-[X1][dF][hSer]WA[Gly(cPent)]GH[Sta]L-NH2) | 28.1 ± 2.4
CC(C)C[C@H](NC(=O)C[C@H](O)[C@H](CC(C)C)NC(=O)[C@H](Cc1c[nH]cn1)NC(=O)CNC(=O)[C@@H](NC(=O)[C@H](C)NC(=O)[C@H](Cc1csc2ccccc12)NC(=O)[C@H](CCC(N)=O)NC(=O)[C@@H](Cc1ccccc1)NC(=O)CN1CCC(NC(=O)CN2CCN(CC(=O)O)CCN(CC(=O)O)CCN(CC(=O)O)CC2)CC1)C1CCCCC1)C(N)=O [DOTA-[Bta^8, Chg^10]MJ9] ({DOTA}-[X1][dF]Q[Bta]A[Chg]GH[Sta]L-NH2) | 2.5 ± 1.0
CC(C)C[C@H](NC(=O)C[C@H](O)[C@H](CC(C)C)NC(=O)[C@H](Cc1c[nH]cn1)NC(=O)CN(C)C(=O)[C@@H](NC(=O)[C@H](C)NC(=O)[C@H](Cc1c[nH]c2ccccc12)NC(=O)[C@H](CCC(N)=O)NC(=O)[C@@H](Cc1ccccc1)NC(=O)CN1CCC(NC(=O)CN2CCN(CC(=O)O)CCN(CC(=O)O)CCN(CC(=O)O)CC2)CC1)C(C)C)C(N)=O [DOTA-[N—Me-Gly^11]MJ9] | 6.3 ± 0.6
CC(C)C[C@H](NC(=O)C[C@H](O)[C@H](CC(C)C)NC(=O)[C@H](Cc1c[nH]cn1)NC(=O)CNC(=O)[C@@H](NC(=O)[C@H](C)NC(=O)[C@H](Cc1csc2ccccc12)NC(=O)[C@H](CCC(N)=O)NC(=O)[C@@H](Cc1ccccc1)NC(=O)CN1CCC(NC(=O)CN2CCN(CC(=O)O)CCN(CC(=O)O)CCN(CC(=O)O)CC2)CC1)C1CCCC1)C(N)=O [DOTA-[Bta^8, Cpg^10]MJ9] ({DOTA}-[X1][dF]Q[Bta]A[Gly(cPent)]GH[Sta]L-NH2) | 2.2 ± 0.5
CC(C)C[C@H](NC(=O)C[C@H](O)[C@H](CC(C)C)NC(=O)[C@H](Cc1c[nH]cn1)NC(=O)CNC(=O)[C@@H](NC(=O)[C@H](CO)NC(=O)[C@H](Cc1c[nH]c2ccccc12)NC(=O)[C@H](CCO)NC(=O)[C@@H](Cc1ccccc1)NC(=O)CN1CCC(NC(=O)CN2CCN(CC(=O)O)CCN(CC(=O)O)CCN(CC(=O)O)CC2)CC1)C(C)C)C(N)=O [DOTA-[Hse^7, Ser^9]MJ9] ({DOTA}-[X1][dF][hSer]WSVGH[Sta]L-NH2) | 14.5 ± 0.8
CCCC[C@H](NC(=O)[C@H](Cc1ccccc1)NC(=O)[C@H](Cc1c[nH]cn1)NC(=O)CCNC(=O)[C@@H](NC(=O)[C@H](C)NC(=O)[C@H](Cc1csc2ccccc12)NC(=O)[C@H](CCC(N)=O)NC(=O)[C@@H](Cc1ccccc1)NC(=O)CN1CCN(CC(=O)O)CCN(CC(=O)O)CCN(CC(=O)O)CC1)C(C)C)C(N)=O [DOTA-[Bta^8]UL] ({DOTA}-[dF]Q[Bta]AV[βAla]HF[Nle]-NH2) | 0 ± 0
CC(C)C[C@H](NC(=O)C[C@H](O)[C@H](CC(C)C)NC(=O)[C@H](Cc1c[nH]cn1)NC(=O)CN(C)C(=O)[C@@H](NC(=O)[C@H](C)NC(=O)[C@H](Cc1c[nH]c2ccccc12)NC(=O)[C@H](CCO)NC(=O)[C@@H](Cc1ccccc1)NC(=O)CN1CCC(NC(=O)CN2CCN(CC(=O)O)CCN(CC(=O)O)CCN(CC(=O)O)CC2)CC1)C(C)C)C(N)=O [DOTA-[Hse^7, N—Me-Gly^11]MJ9] ({DOTA}-[X1][dF][hSer]WAV[Sar]H[Sta]L-NH2) | 13.8 ± 0.7
CC(C)C[C@H](NC(=O)C[C@H](O)[C@H](CC(C)C)NC(=O)[C@H](Cc1c[nH]cn1)NC(=O)CNC(=O)[C@@H](NC(=O)[C@H](C)NC(=O)[C@H](Cc1c[nH]c2ccccc12)NC(=O)[C@H](CCC(N)=O)NC(=O)[C@@H](Cc1ccccc1)NC(=O)[C@H]1CC[C@H](CNC(=O)CN2CCN(CC(=O)O)CCN(CC(=O)O)CCN(CC(=O)O)CC2)CC1)C(C)C)C(N)=O [DOTA-[Txa^5]MJ9] | 24.8 ± 0.3

Results, then the compound that gave them:

Amount of intact tracer after incubation in human plasma for 72 ± 2 h (n = 2) | SMILES
18.2 ± 1.9 | CC(C)C[C@H](NC(=O)C[C@H](O)[C@H](CC(C)C)NC(=O)[C@H](Cc1c[nH]cn1)NC(=O)CNC(=O)[C@@H](NC(=O)[C@H](C)NC(=O)[C@H](Cc1c[nH]c2ccccc12)NC(=O)[C@H](CCO)NC(=O)[C@@H](CCCNC(=N)N)NC(=O)CN1CCC(NC(=O)CN2CCN(CC(=O)O)CCN(CC(=O)O)CCN(CC(=O)O)CC2)CC1)C(C)C)C(N)=O [DOTA-[arg^6, Hse^7]MJ9] ({DOTA}-[X1][dR][hSer]WAVGH[Sta]L-NH2)
10.2 ± 2.7 | CCCC[C@H](NC(=O)[C@H](Cc1ccccc1)NC(=O)[C@H](Cc1c[nH]cn1)NC(=O)CCNC(=O)[C@@H](NC(=O)[C@H](C)NC(=O)[C@](C)(Cc1c[nH]c2ccccc12)NC(=O)[C@H](CCC(N)=O)NC(=O)[C@@H](Cc1ccccc1)NC(=O)CN1CCN(CC(=O)O)CCN(CC(=O)O)CCN(CC(=O)O)CC1)C(C)C)C(N)=O [DOTA-[α-Me-Trp^8]UL] ({DOTA}-[dF]Q[αMeW]AV[βAla]HF[Nle]-NH2)
2.7 ± 0.3 | CC(C)C[C@H](NC(=O)C[C@H](O)[C@H](CC(C)C)NC(=O)[C@H](Cc1c[nH]cn1)NC(=O)CNC(=O)[C@@H](NC(=O)[C@H](C)NC(=O)[C@H](Cc1csc2ccccc12)NC(=O)[C@H](CCC(N)=O)NC(=O)[C@@H](Cc1ccccc1)NC(=O)CN1CCC(NC(=O)[C@@H](CN)NC(=O)[C@@H](CCCN)NC(=O)CN2CCN(CC(=O)O)CCN(CC(=O)O)CCN(CC(=O)O)CC2)CC1)C(C)C)C(N)=O [DOTA-orn^3-dap^4-[Bta^8]MJ9] ({DOTA}-[dOrn][dDap][X1][dF]Q[Bta]AVGH[Sta]L-NH2)
22.1 ± 2.2 | CC(C)C[C@H](NC(=O)C[C@H](O)[C@H](CC(C)C)NC(=O)[C@H](Cc1c[nH]cn1)NC(=O)CNC(=O)[C@@H](NC(=O)[C@H](CO)NC(=O)[C@](C)(Cc1c[nH]c2ccccc12)NC(=O)[C@H](CCC(N)=O)NC(=O)[C@@H](Cc1ccccc1)NC(=O)CN1CCC(NC(=O)CN2CCN(CC(=O)O)CCN(CC(=O)O)CCN(CC(=O)O)CC2)CC1)C(C)C)C(N)=O [DOTA-[α-Me-Trp^8, Ser^9]MJ9] ({DOTA}-[X1][dF]Q[αMeW]SVGH[Sta]L-NH2)
22.6 ± 1.9 | CC(C)C[C@H](NC(=O)C[C@H](O)[C@H](CC(C)C)NC(=O)[C@H](Cc1c[nH]cn1)NC(=O)CNC(=O)[C@@H](NC(=O)[C@H](C)NC(=O)[C@](C)(Cc1c[nH]c2ccccc12)NC(=O)[C@H](CCC(N)=O)NC(=O)[C@@H](Cc1ccccc1)NC(=O)CN1CCC(NC(=O)CN2CCN(CC(=O)O)CCN(CC(=O)O)CCN(CC(=O)O)CC2)CC1)C1CCCCC1)C(N)=O [DOTA-[α-Me-Trp^8, Chg^10]MJ9] ({DOTA}-[X1][dF]Q[αMeW]A[Chg]GH[Sta]L-NH2)
20.1 ± 0.7 | CC(C)C[C@H](NC(=O)C[C@H](O)[C@H](CC(C)C)NC(=O)[C@H](Cc1c[nH]cn1)NC(=O)CNC(=O)[C@@H](NC(=O)[C@H](C)NC(=O)[C@](C)(Cc1c[nH]c2ccccc12)NC(=O)[C@H](CCC(N)=O)NC(=O)[C@@H](CCCNC(=N)N)NC(=O)CN1CCC(NC(=O)CN2CCN(CC(=O)O)CCN(CC(=O)O)CCN(CC(=O)O)CC2)CC1)C(C)C)C(N)=O [DOTA-[arg^6, α-Me-Trp^8]MJ9] ({DOTA}-[X1][dR]Q[αMeW]AVGH[Sta]L-NH2)
13.5 ± 3.4 | CC(C)C[C@H](NC(=O)C[C@H](O)[C@H](CC(C)C)NC(=O)[C@H](Cc1c[nH]cn1)NC(=O)CNC(=O)[C@@H](NC(=O)[C@H](C)NC(=O)[C@H](Cc1c[nH]c2ccccc12)NC(=O)[C@H](CCC(N)=O)NC(=O)[C@@H](CCCNC(=N)N)NC(=O)CN1CCC(NC(=O)CN2CCN(CC(=O)O)CCN(CC(=O)O)CCN(CC(=O)O)CC2)CC1)C(C)C)C(N)=O [DOTA-[arg^6]MJ9] ({DOTA}-[X1][dR]QWAVGH[Sta]L-NH2)
7.9 ± 2.5 | CC(C)C[C@H](NC(=O)C[C@H](O)[C@H](CC(C)C)NC(=O)[C@H](Cc1c[nH]cn1)NC(=O)CNC(=O)[C@@H](NC(=O)[C@H](C)NC(=O)[C@H](Cc1c[nH]c2ccccc12)NC(=O)[C@H](CCO)NC(=O)[C@@H](Cc1ccccc1)NC(=O)CN1CCC(NC(=O)[C@@H](CN)NC(=O)[C@@H](CCCN)NC(=O)CN2CCN(CC(=O)O)CCN(CC(=O)O)CCN(CC(=O)O)CC2)CC1)C(C)C)C(N)=O [DOTA-orn^3-dap^4-[Hse^7]MJ9] ({DOTA}-[dOrn][dDap][X1][dF][hSer]WAVGH[Sta]L-NH2)
